Data from patent publication US9845420B2, “Latent heat cold storage material” (Panasonic Intellectual Property Management Co., Ltd., priority 2015, dated 2017).

Assay: Saturated concentration (solubility) of crystalline powder compound in inorganic salt aqueous solution
Type: physicochemical
Conditions: for Saturated concentration: 25° C., aqueous solution containing only 15 wt % of sodium chloride and 10 wt % of ammonium chloride; for Saturating concentration: 25 degrees Celsius
Method: The latent heat cold storage material of the present disclosure contains a crystalline powder as a supercooling inhibitor. The crystalline powder is formed of a compound having low solubility in an aqueous solution of an inorganic salt (hereinafter, also referred to as a low-solubility compound).
In the present disclosure, the “solubility” refers to a limit of an amount at which a solute is dissolved in a certain amount of a solvent. The solubility is represented by a mass (g) of the solute which is dissolved in 100 g of the solvent at a certain temperature. […] In the present disclosure, the “saturated concentration” refers to a concentration of an aqueous solution in which a solute is dissolved up to the solubility. When the limit of an amount at which a solute is dissolved in 100 g of a solvent is 20 g, the solubility is 20 g, and the saturated concentration of the solute is 16.7 wt %.

| Saturated concentration | Saturating concentration (aqueous solution containing 10 wt % of potassium chloride and 10 wt % of ammonium chloride) [wt %] | Saturating concentration (aqueous solution containing 12.5 wt % of potassium chloride and 12.5 wt % of ammonium chloride) | Solubility in the inorganic salt aqueous solution (normal temperature, inorganic salt concentration 10 to 30 wt %) [wt %] | SMILES |
| --- | --- | --- | --- | --- |
| less than 0.08 wt % | – | – | – | CCCCNC(=O)NCCCC [1,3-dibutylurea] |
| less than 7.0 wt % | – | – | – | O=C(NC1CCCCC1)NC1CCCCC1 [1,3-dicyclohexylurea] |
| 3.0 wt % | 7.0 | less than 7.0 wt % | ≤ 10 | CCNC(=O)NCC [1,3-diethylurea] |
